Experimental data from US11078170B2 (Assembly Biosciences, Inc., priority 2017, dated 2021).

test system: HBV viral production from HepAD38 cells; experiment: Activity of test compounds on viral production from HepAD38 cells (viral load by qPCR of HBV core sequence in supernatant); format: cell-based; conditions: Hepatitis B virus, 120 h, 5 days incubation, HBV DNA in supernatant by qPCR, top concentration 10 μM, read-out: Viral Load EC50 Activity range
In short: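 HepAD38 cells, 50,000/well in tetracycline-free 2% FBS medium, treated 5 days at 37° C. with compound from 10 μM top concentration. HBV DNA in supernatant quantified by TaqMan qPCR of core sequence against DNA standards, relative to DMSO wells; CellTiter-Glo viability read in parallel. EC50/CC50 from four-parameter logistic fit.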

`CN1[C@H](C(=O)Nc2ccc(F)c(Cl)c2)C[C@H](c2cccc(F)c2)NS1(=O)=O` (relative stereo) [HBV-CSU-231-ISO-I, Cis-N-(3-Chloro-4-fluorophenyl)-5-(3-fluorophenyl)-2-methyl-1,2,6-thiadiazinane-3-carboxamide 1,1-dioxide] and `CN1[C@@H](C(=O)Nc2ccc(F)c(Cl)c2)C[C@@H](c2ccc3c(c2)ncn3C)NS1(=O)=O` (relative stereo) [HBV-CSU-360-ISO-II, Cis-N-(3-chloro-4-fluorophenyl)-2-methyl-5-(1-methyl-1H-benzo[d]imidazol-5-yl)-1,2,6-thiadiazinane-3-carboxamide 1,1-dioxide] cannot be ordered by EC50: < 1000 nM for the first, < 1000 nM for the second.

First: CN1[C@@H](C(=O)Nc2ccc(F)c(Cl)c2)C[C@@H](c2ccc(-c3cnn(C)c3)cc2)NS1(=O)=O (relative stereo) [HBV-CSU-246-ISO-I, Cis-N-(3-Chloro-4-fluorophenyl)-2-methyl-5-(4-(1-methyl-1H-pyrazol-4-yl)phenyl)-1,2,6-thiadiazinane-3-carboxamide 1,1-dioxide]
Second: Cc1cc([C@H]2C[C@@H](C(=O)Nc3ccc(F)c(Cl)c3)N(C)S(=O)(=O)N2)sc1-c1cnn(C)c1 (relative stereo) [HBV-CSU-300-ISO-I, Cis-N-(3-Chloro-4-fluorophenyl)-5-(4-methyl-5-(1-methyl-1H-pyrazol-4-yl)thiophen-2-yl)-2-methyl-1,2,6-thiadiazinane-3-carboxamide 1,1-dioxide]
The EC50 of the first is higher: > 5000 nM for the first, < 1000 nM for the second. The second is the more potent here.

First: CN1[C@H](C(=O)Nc2ccc(F)c(Cl)c2)C[C@H](c2ncc(-c3cncs3)s2)NS1(=O)=O (relative stereo) [HBV-CSU-278-ISO-I, Cis-5-([5,5′-Bithiazol]-2-yl)-N-(3-chloro-4-fluorophenyl)-2-methyl-1,2,6-thiadiazinane-3-carboxamide 1,1-dioxide]
Second: CN1[C@@H](C(=O)Nc2ccc(F)c(Cl)c2)C[C@@H](c2ncc(-c3c[nH]cn3)s2)NS1(=O)=O (stereo in doubt) [HBV-CSU-333-ISO-II, 5-(5-(1H-imidazol-4-yl)thiazol-2-yl)-N-(3-chloro-4-fluorophenyl)-2-methyl-1,2,6-thiadiazinane-3-carboxamide 1,1-dioxide]
The EC50 of the first is lower: < 1000 nM for the first, 1000 to 5000 nM for the second.

`CN1[C@@H](C(=O)Nc2ccc(F)c(Cl)c2)C[C@@H](c2cc(-c3cncn3C)cs2)NS1(=O)=O` (relative stereo) [HBV-CSU-285-ISO-II, Cis-N-(3-Chloro-4-fluorophenyl)-2-methyl-5-(4-(1-methyl-1H-imidazol-5-yl)thiophen-2-yl)-1,2,6-thiadiazinane-3-carboxamide 1,1-dioxide] and `CN1[C@H](C(=O)Nc2ccc(F)c(Cl)c2)C[C@H](c2cc(-c3ccnn3C)cs2)NS1(=O)=O` (relative stereo) [HBV-CSU-289-ISO-I, Cis-N-(3-chloro-4-fluorophenyl)-2-methyl-5-(4-(1-methyl-1H-pyrazol-5-yl)thiophen-2-yl)-1,2,6-thiadiazinane-3-carboxamide 1,1-dioxide] cannot be ordered by EC50: < 1000 nM for the first, < 1000 nM for the second.

`Cc1c(-c2csc([C@@H]3C[C@H](C(=O)Nc4ccc(F)c(Cl)c4)N(C)S(=O)(=O)N3)c2)cnn1C` (relative stereo) [HBV-CSU-315-ISO-II, Cis-N-(3-chloro-4-fluorophenyl)-5-(4-(1,5-dimethyl-1H-pyrazol-4-yl)thiophen-2-yl)-2-methyl-1,2,6-thiadiazinane-3-carboxamide 1,1-dioxide] and `Cc1nn(C)cc1-c1csc([C@@H]2C[C@H](C(=O)Nc3ccc(F)c(Cl)c3)N(C)S(=O)(=O)N2)c1` (relative stereo) [HBV-CSU-316-ISO-II, Cis-N-(3-chloro-4-fluorophenyl)-5-(4-(1,3-dimethyl-1H-pyrazol-4-yl)thiophen-2-yl)-2-methyl-1,2,6-thiadiazinane-3-carboxamide 1,1-dioxide] cannot be ordered by EC50: < 1000 nM for the first, < 1000 nM for the second.

Compared with `Cc1nn(C)c(C)c1-c1csc([C@@H]2C[C@H](C(=O)Nc3ccc(F)c(Cl)c3)N(C)S(=O)(=O)N2)c1` (relative stereo) [HBV-CSU-317-ISO-II, Cis-N-(3-chloro-4-fluorophenyl)-2-methyl-5-(4-(1,3,5-trimethyl-1H-pyrazol-4-yl)thiophen-2-yl)-1,2,6-thiadiazinane-3-carboxamide 1,1-dioxide], `CN1[C@@H](C(=O)Nc2ccc(F)c(Cl)c2)C[C@@H](c2cc(-c3ccc(F)cn3)cs2)NS1(=O)=O` (stereo in doubt) [HBV-CSU-243-ISO-I, Cis-N-(3-chloro-4-fluorophenyl)-5-(4-(5-fluoropyridin-2-yl)thiophen-2-yl)-2-methyl-1,2,6-thiadiazinane-3-carboxamide 1,1-dioxide] is higher in EC50: < 1000 nM for the first, > 5000 nM for the second.

Going from `CN1[C@@H](C(=O)Nc2ccc(F)c(Cl)c2)C[C@@H](c2cc(-c3cnn(C(F)(F)F)c3)cs2)NS1(=O)=O` (relative stereo) [HBV-CSU-325-ISO-II, Cis-N-(3-Chloro-4-fluorophenyl)-2-methyl-5-(4-(1-(trifluoromethyl)-1H-pyrazol-4-yl)thiophen-2-yl)-1,2,6-thiadiazinane-3-carboxamide 1,1-dioxide] to `CN1[C@H](C(=O)Nc2ccc(F)c(Cl)c2)C[C@H](c2cc(-c3ccc(F)cn3)cs2)NS1(=O)=O` (stereo in doubt) [HBV-CSU-243-ISO-II, Cis-N-(3-chloro-4-fluorophenyl)-5-(4-(5-fluoropyridin-2-yl)thiophen-2-yl)-2-methyl-1,2,6-thiadiazinane-3-carboxamide 1,1-dioxide], the EC50 falls from > 5000 nM to < 1000 nM. The second is the more potent here.

`[2H]C([2H])([2H])N1[C@@H](C(=O)Nc2ccc(F)c(Cl)c2)C[C@@H](c2ncc(-c3cn(C([2H])([2H])[2H])cn3)s2)NS1(=O)=O` (relative stereo) [HBV-CSU-337-ISO-II, Cis-N-(3-Chloro-4-fluorophenyl)-2-(methyl-d3)-5-(5-(1-(methyl-d3)-1H-imidazol-4-yl)thiazol-2-yl)-1,2,6-thiadiazinane-3-carboxamide 1,1-dioxide] and `[2H]C([2H])([2H])N1[C@@H](C(=O)Nc2ccc(F)c(Cl)c2)C[C@@H](c2ncc(-c3cn(C)cn3)s2)NS1(=O)=O` (relative stereo) [HBV-CSU-338-ISO-II, Cis-N-(3-Chloro-4-fluorophenyl)-2-(methyl-d3)-5-(5-(1-methyl-1H-imidazol-4-yl)thiazol-2-yl)-1,2,6-thiadiazinane-3-carboxamide 1,1-dioxide] fall in the same range of EC50: 1000 to 5000 nM for the first, 1000 to 5000 nM for the second.

Compared with `[2H]C([2H])([2H])N1[C@@H](C(=O)Nc2ccc(F)c(Cl)c2)C[C@@H](c2ccc(Br)s2)NS1(=O)=O` (relative stereo) [HBV-CSU-370-ISO-II, Cis-5-(5-bromothiophen-2-yl)-N-(3-chloro-4-fluorophenyl)-2-(methyl-d3)-1,2,6-thiadiazinane-3-carboxamide 1,1-dioxide], `CN1[C@H](C(=O)Nc2ccc(F)c(Cl)c2)C[C@H](c2ccc(C(F)(F)F)cc2)NS1(=O)=O` (stereo in doubt) [HBV-CSU-217-ISO-I, Cis-N-(3-Chloro-4-fluorophenyl)-2-methyl-5-(4-(trifluoromethyl)phenyl)-1,2,6-thiadiazinane-3-carboxamide 1,1-dioxide] is higher in EC50: 1000 to 5000 nM for the first, > 5000 nM for the second.

Compared with `CN1[C@@H](C(=O)Nc2ccc(F)c(Cl)c2)C[C@@H](c2ccc(C(F)(F)F)cc2)NS1(=O)=O` (stereo in doubt) [HBV-CSU-217-ISO-II, Cis-N-(3-Chloro-4-fluorophenyl)-2-methyl-5-(4-(trifluoromethyl)phenyl)-1,2,6-thiadiazinane-3-carboxamide 1,1-dioxide], `CN1[C@H](C(=O)Nc2ccc(F)c(Cl)c2)C[C@H](c2ncc(-c3ccn(C)n3)s2)NS1(=O)=O` (stereo in doubt) [HBV-CSU-280-ISO-I, Cis-N-(3-Chloro-4-fluorophenyl)-2-methyl-5-(5-(1-methyl-1H-pyrazol-3-yl)thiazol-2-yl)-1,2,6-thiadiazinane-3-carboxamide 1,1-dioxide] is higher in EC50: < 1000 nM for the first, 1000 to 5000 nM for the second.

`CN1[C@@H](C(=O)Nc2ccc(F)c(Cl)c2)C[C@@H](c2ncc(-c3ccn(C)n3)s2)NS1(=O)=O` (stereo in doubt) [HBV-CSU-280-ISO-II, Cis-N-(3-Chloro-4-fluorophenyl)-2-methyl-5-(5-(1-methyl-1H-pyrazol-3-yl)thiazol-2-yl)-1,2,6-thiadiazinane-3-carboxamide 1,1-dioxide] and `[2H]C1[C@]([2H])(c2ncc(-c3cn(C)cn3)s2)NS(=O)(=O)N(C([2H])([2H])[2H])[C@]1([2H])C(=O)Nc1ccc(F)c(Cl)c1` (stereo in doubt) [HBV-CSU-340-ISO-I, Cis-N-(3-Chloro-4-fluorophenyl)-2-(methyl-d3)-5-(5-(1-methyl-1H-imidazol-4-yl)thiazol-2-yl)-1,2,6-thiadiazinane-3,4,5-d3-3-carboxamide 1,1-dioxide] cannot be ordered by EC50: < 1000 nM for the first, < 1000 nM for the second.

First: [2H]C1[C@]([2H])(c2ncc(-c3cn(C([2H])([2H])[2H])cn3)s2)NS(=O)(=O)N(C([2H])([2H])[2H])[C@]1([2H])C(=O)Nc1ccc(F)c(Cl)c1 (stereo in doubt) [HBV-CSU-339-ISO-I, Cis-N-(3-Chloro-4-fluorophenyl)-2-(methyl-d3)-5-(5-(1-(methyl-d3)-1H-imidazol-4-yl)thiazol-2-yl)-1,2,6-thiadiazinane-3,4,5-d3-3-carboxamide 1,1-dioxide]
Second: [2H]C1[C@]([2H])(C(=O)Nc2ccc(F)c(Cl)c2)N(C([2H])([2H])[2H])S(=O)(=O)N[C@]1([2H])c1ncc(-c2cn(C([2H])([2H])[2H])cn2)s1 (stereo in doubt) [HBV-CSU-339-ISO-II, Cis-N-(3-Chloro-4-fluorophenyl)-2-(methyl-d3)-5-(5-(1-(methyl-d3)-1H-imidazol-4-yl)thiazol-2-yl)-1,2,6-thiadiazinane-3,4,5-d3-3-carboxamide 1,1-dioxide]
The EC50 of the first is lower: < 1000 nM for the first, 1000 to 5000 nM for the second.
